This note sets out measurements from patent EP0439320A1, “Erectile dysfunction treatment” (YAMANOUCHI PHARMACEUTICAL CO. LTD., priority 1990, dated 1991).

No end group written: not given here.

In data set [1] the test system is penis erection (tumescence) and its firmness (rigidity). Put plainly: Tumescence and rigidity after intracorporeal injection in anesthetized monkeys. It is filed as in vivo, monkeys (Cynogos or Vervet). Particulars: 0.1 g injected into the corpus cavernosum; evaluated 5 to 120 min after injection; data only in Fig. 1. How it is done:
Tumescence and rigidity after intracorporeal injection of compound (I) were evaluated for monkeys.
Anesthetized monkeys (Cynogos or Vervet), 4-6 kg body weight, were used for the test.
The animal was anesthetized with ketamine and 0.1 g of compound (I) was injected in solution into the corpus cavernosum with a tourniquet at the base of the penis; the animal was then under observation and changes in tumescence and rigidity were noted and plotted. The tourniquet was removed 5 min after the injection.
Manual and visual evaluation of tumescence and rigidity was made 5, 10, 15, 20, 30, 60 and 120 min after injection.
The activity of compound (I) (dose: 0.1 g) on penis erection (tumescence) and firmness (rigidity) in the anesthetized monkeys is shown in Fig. 1.

The nature of data set [2]: Acute toxicity test in mice. The note with it: mouse, in vivo, single dose, 2 weeks observation, read-out: LD50 (95% confidence limits). How it is done: (§1) The acute toxicity of compound (I) salt was evaluated using ICR mice and F344 rats.
(§2) compound (I) was dissolved in dimethylsulfoxide, and the same amount of Macrogol 400 (trade name) was added, and then distilled water for injection was added thereto to provide a solution of predetermined concentration. The solution was injected once each test, intravenously or subcutaneously, at a rate of 10-20 ml/kg, the maximum concentration of the administered solution being 12 mg/ml and 25 mg/ml respectively. The animals were kept under observation for 2 weeks. LD₅₀ values were determined by the up and down method (Probit method) using 5 animals.

Data set [3] deals with penis cavernous smooth muscle of pigs. Put plainly: Relaxation of isolated pig cavernous smooth muscle strip precontracted with noradrenaline (organ bath, tension recorded). Particulars: for Time until prior response restored: contractile response to noradrenaline. How it is done:
The pig and humans cavernous smooth muscle specimens are placed in an organ bath, and the tension is recorded. […] Work was also conducted with reference compounds in the porcine tissue, measuring the contractile response to noradrenaline.

Data set [4] in a line: Acute toxicity test in rats. The note with it: rat, in vivo, F344 rats, single dose, 2 weeks observation, read-out: LD50 (95% confidence limits). How it is done:
as §1, §2

In data set [5] the test system is human cavernous smooth muscle strip. Put plainly: Relaxation of isolated human cavernous smooth muscle strip contracted with noradrenaline (organ bath). Set-up: species or system humans. Particulars: dose 10^-7 M, contracted with noradrenaline 2 x 10^-5 M, read-out: Inhibiting effect. How it is done: The relaxing effect of compound (I) on isolated specimens of penis cavernous smooth muscle of pigs (smooth muscle strips obtained from slaughtered boards) and of humans was tested by the following method. The pig and humans cavernous smooth muscle specimens are placed in an organ bath, and the tension is recorded. In the case of human cavernous smooth muscle strip, the relaxatory effect was evaluated. The specimen was contracted with a noradrenaline dose of 2 x 10⁻⁵ M and was treated with compound (I) at a dose of 10⁻⁷ M. In Table 2, the result for human tissue is shown.

A word on the LD50: it is the dose at which mortality reaches 50%. As for `CCOc1ccccc1OCCNC(C)Cc1ccc(OC)c(S(N)(=O)=O)c1` (stereo not drawn) [Compound (I), 5-[2-[2-(2-ethoxyphenoxy)ethylamino]-2-methylethyl] -2-methoxybenzene sulfonamide], in data set [1], the “Effect on penis erection (tumescence) and firmness (rigidity)” value is “excellent effects of potent penis erection, tumescence and rigidity with long lasting action”. Moreover, the median lethal dose (LD50) at 336 h was 103 mg/kg in data set [2] (iv, Female); 98 mg/kg in data set [2] (iv, Male); 275 mg/kg in data set [2] (sc, subcutaneous, Female); 254 mg/kg in data set [2] (sc, subcutaneous, Male); 78 mg/kg in data set [4] (iv, intravenous, Female); 70 mg/kg in data set [4] (iv, intravenous, Male). The LD50 at 336 h stood at 347 mg/kg in data set [4] (sc, subcutaneous, Female) and 395 mg/kg in data set [4] (sc, subcutaneous, Male). Besides, the “full response seen (contractile response to noradrenaline)” value in data set [3] (antagonist dose 10^-8 M, at 165 min, noradrenaline 10^-6 to 10^-8 M) was “At 165 min 60% of full response seen”. Moreover, in data set [5], the inhibition at 0.1 µM came out at 100%.
With `Cc1ccc(N(CC2=NCCN2)c2cccc(O)c2)cc1` [Phentolamine], the “Time until prior response restored” value in data set [3] (antagonist dose 7 x 10^-7 M) came to 150 min.
Regarding “vasoactive intestinal peptide (HSDAVFTDNYTRLRKQMAVKKYLNSILN; ends and bridges not checked; UniProt P01282 125-152, looked up) [VIP (vasoactive intestinal peptide)]”, the “Time until prior response restored” value in data set [3] (antagonist dose 10^-7 M) turned out to be 45 min.
For `COc1ccc(Cc2nccc3cc(OC)c(OC)cc23)cc1OC` [Papaverine], the “Time until prior response restored” value in data set [3] (antagonist dose 2 x 10^-4 M) turned out to be 45 min.
Regarding `COc1cc2nc(N3CCN(C(=O)c4ccco4)CC3)nc(N)c2cc1OC` [Prazocin], the “Time until prior response restored” value in data set [3] (antagonist dose 10^-6 M) came to 160 min.
